Literature values, collected in publication PMC2810551 (Chemistry & biology, 2009).

Tested on: CD4+ T cells expressing the MBP Ac1-11 specific Vα2.3/Vβ8.2 TCR
Settings: immunization with MBP Ac1-11; B10.PL mice; ref [6]

## Ac-ASQKRPSQRSK [MBP Ac1-11]
  activation and expansion of specific CD4+ T cells: results in activation and expansion of CD4+ T cells expressing the MBP Ac1-11 specific Vα2.3/Vβ8.2 TCR
